Source: patent publication US20220127267A1, “THIENO[3,2-B] PYRROLE[3,2-D]PYRIDAZINONE DERIVATIVES AND THEIR USE AS PKM2 DERIVATIVES FOR THE TREATMENT OF CANCER, OBESITY AND DIABETES RELATED DISORDERS” (Agios Pharmaceuticals, Inc., priority 2019, published 2022)

Columns and labels:
PKR K410E = PKR K410E (Homo sapiens, UniProt P30613, K410E); assay: PKR Mutant Assay (K410E), LDH-coupled, absorbance 340 nm; assay type: biochemical; conditions: mutant PKR K410E enzyme activation
Experimental: (§1) PKR (WT or mutant) enzyme stock solution was diluted to prepare a 1.25× Reaction Mix (without ADP). 1 μL of test compound was first added to the wells followed by 40 μL of 1.25× Reaction Mix (without ADP) and incubated at room temperature (25° C.) for 60 min. The reaction was initiated with 10 μL ADP, bringing the final Reaction Mix to 1x, and the reaction progress was measured as changes in absorbance at 340 nm wavelength at room temperature.
(§2) Test compound preparation: Test compounds were prepared at 50× final concentration in DMSO. 1 to 3 dilutions were made for 11 points (for example 50 μL of 5000 μM compound was added to 100 μL 100% DMSO to yield a 1667 μM, 50 μL of this added to 100 μL DMSO to yield 556 μM, and so forth). The compounds were added to the assay as a 1 to 50 dilution (1 μL in 50 μL) to yield a top concentration of 100 μM, decreasing 3-fold for 11 points.
(§3) Reaction Mix: PKR (1.25-1000 ng/well, 0.025-20 μg/ml depending on the PKR mutant), ADP (0.05-2.3 mM depending on the PKR mutant), PEP (0.031-2 mM depending on the PKR mutant), NADH (180 μM), LDH (0.005 U/μL, Sigma #L3888), 1 mM DTT, 0.03% BSA in 1× Reaction Buffer
(§4) Reaction Buffer: 100 mM KCl, 50 mM Tris pH 7.5, 5 mM MgCl2.

PKR WT = PKR WT (Homo sapiens, UniProt P30613); assay: PKR enzyme assay (WT), LDH-coupled, absorbance 340 nm; assay type: biochemical; conditions: wild type PKR enzyme activation
PKR WT, sequence (P30613 whole entry): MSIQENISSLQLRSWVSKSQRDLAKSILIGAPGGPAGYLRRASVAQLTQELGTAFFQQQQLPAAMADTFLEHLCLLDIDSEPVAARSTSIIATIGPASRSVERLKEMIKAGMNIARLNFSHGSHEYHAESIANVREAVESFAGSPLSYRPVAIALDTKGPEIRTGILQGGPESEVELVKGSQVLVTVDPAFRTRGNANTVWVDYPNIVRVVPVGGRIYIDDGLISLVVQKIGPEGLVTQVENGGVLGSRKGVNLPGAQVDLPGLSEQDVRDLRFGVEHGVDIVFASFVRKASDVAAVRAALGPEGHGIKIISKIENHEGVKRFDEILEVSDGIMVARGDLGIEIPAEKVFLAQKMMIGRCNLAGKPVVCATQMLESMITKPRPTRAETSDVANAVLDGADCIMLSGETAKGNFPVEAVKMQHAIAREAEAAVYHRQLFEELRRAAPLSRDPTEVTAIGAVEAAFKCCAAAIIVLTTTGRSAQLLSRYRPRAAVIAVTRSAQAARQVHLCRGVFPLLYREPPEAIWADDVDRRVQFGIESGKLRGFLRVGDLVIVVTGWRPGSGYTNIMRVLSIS
Experimental: as §1, §2, §3, §4

PKM2 WT = PKM2 WT (Homo sapiens, UniProt P14618); assay: PKM2 Assay, LDH-coupled, absorbance 340 nm; assay type: biochemical; conditions: wild type PKM2 enzyme activation
PKM2 WT, sequence (P14618 whole entry): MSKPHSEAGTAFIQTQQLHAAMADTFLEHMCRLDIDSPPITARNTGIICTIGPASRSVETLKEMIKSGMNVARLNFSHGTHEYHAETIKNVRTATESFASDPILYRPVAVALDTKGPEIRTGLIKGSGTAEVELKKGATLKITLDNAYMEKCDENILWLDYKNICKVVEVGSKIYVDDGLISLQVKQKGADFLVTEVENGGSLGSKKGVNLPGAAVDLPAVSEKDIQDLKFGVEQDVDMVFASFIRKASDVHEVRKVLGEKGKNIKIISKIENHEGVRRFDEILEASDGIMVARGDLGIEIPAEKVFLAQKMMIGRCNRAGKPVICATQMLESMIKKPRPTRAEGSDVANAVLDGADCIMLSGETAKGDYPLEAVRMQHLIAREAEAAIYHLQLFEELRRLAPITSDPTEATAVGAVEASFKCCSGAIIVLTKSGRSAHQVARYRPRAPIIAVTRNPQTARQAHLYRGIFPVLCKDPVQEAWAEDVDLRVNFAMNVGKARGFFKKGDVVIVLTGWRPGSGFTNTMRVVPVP
Experimental: as §1, with “PKM2” for “PKR (WT or mutant)”, “ADP (0.4 mM final concentration),” for “ADP,”
as §2
Reaction Mix: PKM2 (5 ng/well, 0.1 μg/ml), ADP (0.4 mM), PEP (0.11 mM), NADH (180 μM), LDH (0.005 U/μL, Sigma #L3888), 1 mM DTT, 0.03% BSA in 1×
as §4

PK R510Q = PK R510Q (Homo sapiens, UniProt P30613, R510Q); assay: PKR Mutant Assay (R510Q), LDH-coupled, absorbance 340 nm; assay type: biochemical; conditions: mutant PKR R510Q enzyme activation
PK R510Q, sequence (P30613 whole entry R510Q): as the sequence (P30613 whole entry) above, with R510Q counted along it
Experimental: as §1, §2, §3, §4

RBCs = assay: Cell Based ATP Assay in purified red blood cells (Cell-Titer-Glo); design: species or system human; conditions: wild type PKR, ATP levels in RBCs, overnight at 37° C.; for AC50: Homo sapiens, Erythrocyte
Experimental: Fresh blood drawn from healthy volunteers into K2EDTA tubes was collected. Whole blood was pelleted by spinning at 500 g for 10 minutes. The transfusion bag port was cut off Purecell leukocyte reduction neofilter (Fisher NC0267633) one (1) inch above filter. A 10 ml syringe barrel was attached to the remaining cut tubing attached to the neofilter. The plasma layer was removed from the pellet of the whole blood and the pellet was resuspended in 2× volume of phosphate buffered saline (PBS). 9 ml re-suspended blood cell pellet was transferred to a 10 ml syringe that was attached to the neofilter. The whole blood was allowed to gravity flow through filter until all fluid ran through upper tubing into a filter disc. The plunger was added to the syringe. The filter was inverted and air was plunged through the syringe filter system. A new 5 ml syringe was used to remove filtered RBCs from the bag by the syringe port. Purified RBCs were transferred to a 5 ml snap cap tube that had been incubated on ice. The 5 ml snap cap tube was spun at 500 g for 10 minutes at 15 C. Supernatant was aspirated and resuspended in AGAM (1×PBS, 1% glucose, 170 mg/L adenine, 5.25 g/L mannitol) at a density of 4×10^9 cells/mL.
For cell based ATP assays, the compound as described herein was prepared in 100% DMSO as a 10 mM stock. Serial dilutions (1:4) were performed in 96-well V-bottom storage plate and then added 1:100 to 96-well V-bottom plates containing AGAM. 10 μL/well of compound diluted in AGAM was added to black clear bottom assay plates. RBCs were diluted in AGAM media to a density of 1×10^7 cells/mL before added 90 μL/well to black clear bottom assay plates (final compound concentration at 0.1% DMSO concentration). Assay plates were sealed using aluminum foil seals and incubated overnight at 37° C. in a humidified chamber. ATP levels were read out using Cell-Titer-Glo (Promega).

PKR K410E, sequence (P30613 whole entry K410E): as the sequence (P30613 whole entry) above, with K410E counted along it

Row | Compound | PKR K410E AC50 (PKR K410E) | PKR WT AC50 (PKR WT) | AC50 (PKM2 WT) | PK R510Q AC50 (PK R510Q) | AC50 (PKR K410E) | AC50 (PKR WT) | AC50 (PK R510Q) | AC50 (RBCs) | Cell based ATP assay AC50 (RBCs)
1 | COc1cccc(Cc2ccc3c4sc(C)cc4n(C)c3c2)c1 [Cpd 2] | No Fit | No Fit | > 800 nM | No Fit |  |  |  |  | 
2 | COc1cccc(Cn2ncc3c4n[nH]cc4n(C)c3c2=O)c1 [Cpd 29] |  |  | > 800 nM |  | > 800 nM | > 800 nM | > 800 nM |  | 
3 | CNC(=O)c1ccc2c3cnn(Cc4cccc(OC)c4)c(=O)c3n(C)c2c1 [Cpd 41] | No Fit |  | < 300 nM | No Fit |  | > 800 nM |  |  | 
4 | COc1cccc(Cn2ncc3c4cc(Cc5ccccc5)ccc4n(C)c3c2=O)c1 [Cpd 34] |  |  | > 800 nM |  | > 800 nM | > 800 nM | > 800 nM |  | 
5 | COc1cccc(Cn2ncc3c4cc(CO)ccc4n(C)c3c2=O)c1 [Cpd 44] |  |  | 301 to 800 nM |  | > 800 nM | > 800 nM | > 800 nM |  | 
6 | C=Cc1ccc2c(c1)c1cnn(Cc3cccc(OC)c3)c(=O)c1n2C [Cpd 39] |  |  | > 800 nM |  | > 800 nM | > 800 nM | > 800 nM |  | 
7 | COc1cccc(CN2Cc3c(n(C)c4cc(C)sc34)C2=O)c1 [Cpd 1] |  |  | > 800 nM |  | > 800 nM | > 800 nM | > 800 nM |  | 
8 | C=Cc1ccc2c3cnn(Cc4cccc(OC)c4)c(=O)c3n(C)c2c1 [Cpd 42] |  |  | > 800 nM |  | > 800 nM | > 800 nM | > 800 nM |  | 
9 | COC(=O)c1ccc2c(c1)c1cnn(Cc3cccc(OC)c3)c(=O)c1n2C [Cpd 37] |  |  | > 800 nM |  | > 800 nM | > 800 nM | > 800 nM |  | 
10 | COc1cccc(Cn2ncc3c4nn(C)cc4n(C)c3c2=O)c1 [Cpd 30] |  |  | > 800 nM |  | > 800 nM | > 800 nM | > 800 nM |  | 
11 | COc1cccc(Cn2ncc3c4c(Br)cccc4n(C)c3c2=O)c1 [Cpd 32] |  |  | > 800 nM |  | > 800 nM | > 800 nM | > 800 nM |  | 
12 | CCc1ccc2c3cnn(Cc4cccc(OC)c4)c(=O)c3n(C)c2c1 [Cpd 43] |  |  | > 800 nM |  | > 800 nM | > 800 nM | > 800 nM |  | 
13 | Cn1c2cc(Cc3cscn3)sc2c2cnn(Cc3ccccn3)c(=O)c21 [Cpd 7] |  |  |  |  | < 300 nM | < 300 nM | < 300 nM | ≤ 1000 nM | 
14 | Cc1c2c(=O)n(Cc3ccn(C)n3)ncc2c2sc(CO)cn12 [Cpd 14] |  |  |  |  | < 300 nM | < 300 nM | < 300 nM | ≤ 1000 nM | 
15 | COc1cccc(Cn2ncc3c(c(C(N)=O)n4cc(C)sc34)c2=O)c1 [Cpd 12] |  |  |  |  | < 300 nM | < 300 nM | < 300 nM | > 1000 nM | 
16 | Cc1cccc(Cn2ncc3c4sc(Cc5ncco5)cc4n(C)c3c2=O)c1 [Cpd 5] |  |  |  |  | < 300 nM | < 300 nM | < 300 nM | ≤ 1000 nM | 
17 | Cc1cn2c(C)c3c(=O)n(Cc4ccn(C)n4)ncc3c2s1 [Cpd 21] |  |  |  |  | < 300 nM | < 300 nM | < 300 nM | ≤ 1000 nM | 
18 | CNC(=O)c1ccc2c(c1)c1cnn(Cc3cccc(OC)c3)c(=O)c1n2C [Cpd 38] | No Fit | No Fit | > 800 nM | No Fit |  |  |  |  | 
19 | COc1cccc(Cn2ncc3c4cc(Br)ccc4n(C)c3c2=O)c1 [Cpd 36] |  |  | 301 to 800 nM |  | > 800 nM | > 800 nM | > 800 nM |  | 
20 | COc1cccc(Cn2ncc3c4sc(Cc5ccccc5)cc4n(C)c3c2=O)c1 [Cpd 4] |  |  | < 300 nM |  | < 300 nM | < 300 nM | < 300 nM |  | 
21 | Cc1c2c(=O)n(Cc3cccc(C#N)c3)ncc2c2sc(Cc3ncco3)cn12 [Cpd 19] |  |  |  |  | < 300 nM | 301 to 800 nM | > 800 nM | > 1000 nM | 
22 | Cc1cn2c(s1)c(C)c1c(=O)n(Cc3cc[nH]n3)ncc12 [Cpd 22] |  |  |  |  | > 800 nM | > 800 nM | > 800 nM |  | No Fit
23 | COc1cccc(Cn2ncc3c(c(C#CCO)n4cc(C)sc34)c2=O)c1 [Cpd 13] |  |  |  |  | 301 to 800 nM | 301 to 800 nM | 301 to 800 nM |  | No Fit

Continued, in another order:

Row | PKR K410E AC50 (PKR K410E) | PKR WT AC50 (PKR WT) | AC50 (PKM2 WT) | PK R510Q AC50 (PK R510Q) | AC50 (PKR K410E) | AC50 (PKR WT) | AC50 (PK R510Q) | Compound | AC50 (RBCs) | Cell based ATP assay AC50 (RBCs)
24 |  |  | 301 to 800 nM |  | > 800 nM | > 800 nM | 301 to 800 nM | COc1cccc(Cn2ncc3c4cccnc4n(C)c3c2=O)c1 [Cpd 66] |  | 
25 |  | No Fit | > 800 nM | No Fit | > 800 nM |  |  | COc1cccc(Cn2ncc3c4c(C)cccc4n(C)c3c2=O)c1 [Cpd 46] |  | 
26 |  |  | 301 to 800 nM |  | > 800 nM | > 800 nM | 301 to 800 nM | COc1cccc(Cn2ncc3c4ccc(Cc5ccccc5)cc4n(C)c3c2=O)c1 [Cpd 60] |  | 
27 |  |  | > 800 nM |  | > 800 nM | > 800 nM | > 800 nM | COc1cccc(Cn2ncc3c4ncccc4n(C)c3c2=O)c1 [Cpd 65] |  | 
28 |  |  | > 800 nM |  | > 800 nM | > 800 nM | > 800 nM | COc1cccc(Cn2ncc3c4cc(C(F)(F)F)ccc4n(C)c3c2=O)c1 [Cpd 63] |  | 
29 |  |  | 301 to 800 nM |  | > 800 nM | > 800 nM | > 800 nM | COc1cccc(Cn2ncc3c4cc(O)ccc4n(C)c3c2=O)c1 [Cpd 48] |  | 
30 |  |  | > 800 nM | No Fit | > 800 nM | > 800 nM |  | COc1cccc(Cn2ncc3c4cccc(Cc5ccccc5)c4n(C)c3c2=O)c1 [Cpd 59] |  | 
31 |  |  | < 300 nM |  | > 800 nM | > 800 nM | > 800 nM | COc1cccc(Cn2ncc3c4cc(C#N)ccc4n(C)c3c2=O)c1 [Cpd 45] |  | 
32 |  |  |  |  | < 300 nM | 301 to 800 nM | < 300 nM | Cn1cc(S(=O)(=O)c2ccc3c(c2)c2cnn(Cc4cccc(C(N)=O)c4)c(=O)c2n3C)cn1 [Cpd 55] | > 1000 nM | 
33 |  |  |  |  | > 800 nM | 301 to 800 nM | < 300 nM | Cn1c2ccc(S(=O)(=O)c3ccccc3)cc2c2cnn(Cc3cccc(C(N)=O)c3)c(=O)c21 [Cpd 57] | > 1000 nM | 
34 |  |  |  |  | < 300 nM | 301 to 800 nM | < 300 nM | Cn1c2cc(S(=O)(=O)c3ccccc3)ccc2c2cnn(Cc3cccc(C(N)=O)c3)c(=O)c21 [Cpd 54] | > 1000 nM | 
35 |  |  |  |  | < 300 nM | < 300 nM | < 300 nM | Cn1ccc(Cn2ncc3c4ccc(Cc5cscn5)cc4n(C)c3c2=O)n1 [Cpd 58] | ≤ 1000 nM | 
36 |  |  |  |  | 301 to 800 nM | 301 to 800 nM | < 300 nM | Cn1c2cc(S(C)(=O)=O)ccc2c2cnn(Cc3cccc(C(N)=O)c3)c(=O)c21 [Cpd 53] | > 1000 nM | 
37 |  |  |  |  | < 300 nM | < 300 nM | < 300 nM | Cn1c2ccc(S(=O)(=O)c3cc[nH]n3)cc2c2cnn(Cc3cccc(C(N)=O)c3)c(=O)c21 [Cpd 49] | ≤ 1000 nM | 
